Measured values reported in patent US11999727B2 (Tango Therapeutics, Inc., priority 2020, dated 2024).

Assays:
PRMT5 [1] = biological target: T1, PRMT5 (Homo sapiens, UniProt O14744); assay: PRMT5 biochemical IC50 assay with SAM as cofactor; conditions: PRMT5, SAM as cofactor; read-out: SAM IC50
T1 construct: purchased Viva (custom protein)

PRMT5 [2] = biological target: T1, PRMT5; assay: PRMT5 biochemical IC50 assay with no cofactor; conditions: PRMT5, no cofactor; read-out: No Cofactor/rel IC50
Source text: Table 1 indicates IC50 values (μM) against PRMT5 for exemplary compounds in the presence of SAM as cofactor, with no cofactor, and with MTA as cofactor, respectively (columns 4-6). […] Ki values can be calculated from the IC50 values as described in the Examples section. As detailed in the Examples section, for the assay performed in the presence of SAM, IC50=Ki×1.5 (Ki=IC50/1.5).

PRMT5 [3] = biological target: T1, PRMT5; assay: PRMT5 biochemical IC50 assay with MTA as cofactor; conditions: PRMT5, MTA as cofactor; read-out: MTA IC50
[4] = system: HAP1 MTAP-intact cell line; assay: SDMA in-cell western assay, HAP1 MTAP-intact; assay type: cell-based; conditions: Homo sapiens, HAP1, SDMA in-cell western, HAP1 MTAP-intact; read-out: MTAP HAP1 intact IC50
Outline: (§1)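 IC50 values come from SDMA signal quantified by in-cell western in two HAP1 lines, one with native MTAP levels and one lacking MTAP.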

[5] = system: HAP1 MTAP-deleted cell line; assay: SDMA in-cell western assay, HAP1 MTAP-deleted; assay type: cell-based; conditions: for IC50: Homo sapiens, HAP1, SDMA in-cell western, HAP1 MTAP-deleted; for MTAP intact/deleted ratio: IC50 ratio HAP1 MTAP-intact / HAP1 MTAP-deleted, SDMA in-cell western
Outline: as §1

[6] = system: HAP1 MTAP-deleted cell line; assay: Viability assay, MTAP-deleted cell line; assay type: cell-based; conditions: Homo sapiens, read-out: HAP1 MTAP deleted viability
Source text: Table 1 additionally indicates IC50 values in a viability assay for the MTAP-deleted cell line (column 10), indicating the effect of treatment with compound on cell survival.

[7] = read-out: HAP 1 MTAP deleted IC50
[8] = HAP1, viability IC50, MTAP-deleted cell line

T1 sequence (O14744 whole entry): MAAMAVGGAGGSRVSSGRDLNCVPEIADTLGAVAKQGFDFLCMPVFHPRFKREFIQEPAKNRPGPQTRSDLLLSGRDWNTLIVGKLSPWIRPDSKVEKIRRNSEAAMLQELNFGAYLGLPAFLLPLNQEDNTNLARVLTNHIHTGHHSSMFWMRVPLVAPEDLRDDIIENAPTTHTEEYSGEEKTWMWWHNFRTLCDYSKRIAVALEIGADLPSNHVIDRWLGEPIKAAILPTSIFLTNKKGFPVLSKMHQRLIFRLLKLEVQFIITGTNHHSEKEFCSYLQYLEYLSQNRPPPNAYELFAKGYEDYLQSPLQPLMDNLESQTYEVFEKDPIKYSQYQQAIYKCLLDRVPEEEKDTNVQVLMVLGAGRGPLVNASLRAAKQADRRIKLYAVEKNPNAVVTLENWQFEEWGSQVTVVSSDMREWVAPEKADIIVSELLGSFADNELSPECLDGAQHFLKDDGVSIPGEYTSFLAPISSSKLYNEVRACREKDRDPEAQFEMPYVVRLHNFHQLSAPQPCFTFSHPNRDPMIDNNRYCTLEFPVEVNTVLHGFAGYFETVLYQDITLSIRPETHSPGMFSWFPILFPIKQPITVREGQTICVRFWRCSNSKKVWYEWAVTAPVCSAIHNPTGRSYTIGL
T1 sequence (Q9BQA1 whole entry partner): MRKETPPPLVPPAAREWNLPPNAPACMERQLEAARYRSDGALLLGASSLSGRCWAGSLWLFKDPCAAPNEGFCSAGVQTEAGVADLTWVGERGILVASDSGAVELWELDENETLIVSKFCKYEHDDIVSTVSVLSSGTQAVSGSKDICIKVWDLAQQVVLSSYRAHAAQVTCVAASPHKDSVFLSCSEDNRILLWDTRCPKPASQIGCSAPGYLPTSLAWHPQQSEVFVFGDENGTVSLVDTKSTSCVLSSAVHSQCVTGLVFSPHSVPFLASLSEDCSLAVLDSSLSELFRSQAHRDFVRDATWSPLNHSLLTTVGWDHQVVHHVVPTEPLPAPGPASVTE

| IC50 (PRMT5 [1]) | IC50 (PRMT5 [2]) | IC50 (PRMT5 [3]) | IC50 [4] | IC50 ([5]; read-out: HAP1 MTAP deleted IC50) | IC50 [5, 7] | Structure (SMILES) | MTAP intact/deleted ratio [5] | IC50 ([6]; HAP1, viability assay, MTAP-deleted cell line) | IC50 [6, 8] |
| --- | --- | --- | --- | --- | --- | --- | --- | --- | --- |
| 50 to 500 nM | < 50 nM | < 50 nM | 100 to 1000 nM | < 100 nM |  | CC(=O)Nc1ccc([C@@H]2CC[C@@H](C)CN2C(=O)C(=O)Nc2cnc(N)c(C)c2)cc1 (single isomer, unassigned) [Compound 527] | A (an IC50 ratio greater than or equal to 10 fold) | < 1000 nM |  |
| > 500 nM | > 500 nM | > 500 nM | > 1000 nM |  | > 1000 nM | Cc1cc(NC(=O)C(=O)N2C[C@@H](C)CC[C@@H]2c2ccc(NCC(F)(F)F)cc2)cnc1N (single isomer, unassigned) [Compound 528] | B (an IC50 ratio greater than or equal to 3 fold but lower than 10 fold) |  | 1000 to 10000 nM |
| > 500 nM | > 500 nM | > 500 nM | > 1000 nM |  | > 1000 nM | C[C@H]1CC[C@H]([C@@H]2CCC[C@H](O)C2)N(C(=O)C(=O)Nc2cncc(C(N)=O)c2)C1 (single isomer, unassigned) [Compound 529] | C (an IC50 ratio of less than 3 fold) |  | > 10000 nM |
| > 500 nM | > 500 nM | > 500 nM | > 1000 nM |  | > 1000 nM | C[C@@H]1CC[C@@H]([C@H]2CCC[C@H](O)C2)N(C(=O)C(=O)Nc2cncc(C(N)=O)c2)C1 (single isomer, unassigned) [Compound 530] | C (an IC50 ratio of less than 3 fold) |  | > 10000 nM |
| 50 to 500 nM | > 500 nM | 50 to 500 nM | > 1000 nM |  | > 1000 nM | C[C@@H]1CC[C@@H]([C@H]2CCC[C@@H](O)C2)N(C(=O)C(=O)Nc2cncc(C(N)=O)c2)C1 (single isomer, unassigned) [Compound 531] | B (an IC50 ratio greater than or equal to 3 fold but lower than 10 fold) |  | > 10000 nM |
| 50 to 500 nM | < 50 nM | < 50 nM | > 1000 nM |  | < 100 nM | COc1cc([C@@H]2CC[C@@H](C)CN2C(=O)C(=O)Nc2cncc(C(N)=O)c2)ccn1 (single isomer, unassigned) [Compound 532] | A (an IC50 ratio greater than or equal to 10 fold) |  | < 1000 nM |
| > 500 nM | > 500 nM | > 500 nM | > 1000 nM |  | > 1000 nM | COc1cc([C@H]2CC[C@H](C)CN2C(=O)C(=O)Nc2cncc(C(N)=O)c2)ccn1 (single isomer, unassigned) [Compound 533] | C (an IC50 ratio of less than 3 fold) |  | > 10000 nM |
| 50 to 500 nM | 50 to 500 nM | < 50 nM | > 1000 nM |  | 100 to 1000 nM | Cc1cc([C@H]2CC[C@H](C)CN2C(=O)C(=O)Nc2cncc(C(N)=O)c2)ccn1 (single isomer, unassigned) [Compound 534] | A (an IC50 ratio greater than or equal to 10 fold) |  | 1000 to 10000 nM |
| > 500 nM | > 500 nM | > 500 nM | > 1000 nM |  | > 1000 nM | Cc1cc(NC(=O)C(=O)N2CCCC[C@@H]2c2ccc3[nH]ncc3c2)cnc1N (single isomer, unassigned) [Compound 535] | B (an IC50 ratio greater than or equal to 3 fold but lower than 10 fold) |  | > 10000 nM |
| > 500 nM | > 500 nM | > 500 nM | > 1000 nM |  | > 1000 nM | COc1ncc(NC(=O)C(=O)N2C[C@@H](C)CC[C@@H]2c2cnc3[nH]ncc3c2)cc1C(N)=O (single isomer, unassigned) [Compound 537] | C (an IC50 ratio of less than 3 fold) |  | > 10000 nM |
| > 500 nM | > 500 nM | > 500 nM | > 1000 nM |  | > 1000 nM | COc1cc([C@H]2CC[C@H](C)CN2C(=O)C(=O)Nc2cnc(N)c(C)c2)ccn1 (single isomer, unassigned) [Compound 538] | B (an IC50 ratio greater than or equal to 3 fold but lower than 10 fold) |  | > 10000 nM |
| 50 to 500 nM | 50 to 500 nM | < 50 nM | > 1000 nM |  | < 100 nM | C[C@H]1CC[C@H](c2ccncc2)N(C(=O)C(=O)Nc2cncc(C(N)=O)c2)C1 (single isomer, unassigned) [Compound 539, 5-(2-(5-methyl-2-(pyridin-4-yl)piperidin-1-yl)-2-oxoacetamido)nicotinamide] | A (an IC50 ratio greater than or equal to 10 fold) |  | 1000 to 10000 nM |
| > 500 nM | > 500 nM | > 500 nM | > 1000 nM |  | > 1000 nM | C[C@@H]1CC[C@@H](c2ccncc2)N(C(=O)C(=O)Nc2cncc(C(N)=O)c2)C1 (single isomer, unassigned) [Compound 544, 5-(2-(5-methyl-2-(pyridin-4-yl)piperidin-1-yl)-2-oxoacetamido)nicotinamide] | C (an IC50 ratio of less than 3 fold) |  | > 10000 nM |
| 50 to 500 nM | < 50 nM | < 50 nM | 100 to 1000 nM |  | < 100 nM | COc1cc([C@@H]2CC[C@@H](C)CN2C(=O)C(=O)Nc2cnc(N)c(C)c2)ccn1 (single isomer, unassigned) [Compound 545] | B (an IC50 ratio greater than or equal to 3 fold but lower than 10 fold) |  | < 1000 nM |
| 50 to 500 nM | 50 to 500 nM | < 50 nM | > 1000 nM |  | 100 to 1000 nM | COc1ncc(NC(=O)C(=O)N2C[C@H](C)CC[C@H]2c2cnc3[nH]ncc3c2)cc1C(N)=O (single isomer, unassigned) [Compound 546] | A (an IC50 ratio greater than or equal to 10 fold) |  | 1000 to 10000 nM |
| 50 to 500 nM | 50 to 500 nM | < 50 nM | > 1000 nM |  | < 100 nM | CC[C@H]1CC[C@H](c2ccccc2)N(C(=O)C(=O)Nc2cncc(C(N)=O)c2)C1 (single isomer, unassigned) [Compound 547] | A (an IC50 ratio greater than or equal to 10 fold) |  | 1000 to 10000 nM |
| 50 to 500 nM | 50 to 500 nM | < 50 nM | < 100 nM |  | < 100 nM | Cc1cc(NC(=O)C(=O)N2C[C@H](C)CC[C@H]2c2ccc(C(F)(F)F)cc2)cnc1N (single isomer, unassigned) [Compound 548] | C (an IC50 ratio of less than 3 fold) |  | < 1000 nM |
| 50 to 500 nM | 50 to 500 nM | < 50 nM | 100 to 1000 nM |  | < 100 nM | Cc1cc(NC(=O)C(=O)N2C[C@H](C)CC[C@H]2c2cnc3[nH]ncc3c2)cnc1N (single isomer, unassigned) [Compound 549] | A (an IC50 ratio greater than or equal to 10 fold) |  | 1000 to 10000 nM |
| > 500 nM | > 500 nM | > 500 nM | > 1000 nM |  | > 1000 nM | C[C@@H]1CC[C@@H](c2cnc3[nH]ncc3c2)N(C(=O)C(=O)Nc2cncc(C(N)=O)c2)C1 (single isomer, unassigned) [Compound 550] | C (an IC50 ratio of less than 3 fold) |  | > 10000 nM |
| > 500 nM | > 500 nM | > 500 nM | > 1000 nM |  | > 1000 nM | Cc1cc([C@H]2CC[C@H](C)CN2C(=O)C(=O)Nc2cnc(N)c(C)c2)ccc1O (single isomer, unassigned) [Compound 551] | C (an IC50 ratio of less than 3 fold) |  | > 10000 nM |
| 50 to 500 nM | 50 to 500 nM | < 50 nM | > 1000 nM |  | 100 to 1000 nM | C[C@H]1CC[C@H](c2cc3cn[nH]c3cc2F)N(C(=O)C(=O)Nc2cncc(C(N)=O)c2)C1 (single isomer, unassigned) [Compound 553] | A (an IC50 ratio greater than or equal to 10 fold) |  | 1000 to 10000 nM |
| 50 to 500 nM | 50 to 500 nM | < 50 nM | > 1000 nM |  | 100 to 1000 nM | Cc1cc(NC(=O)C(=O)N2C[C@H](C)CC[C@H]2[C@H]2CCC[C@H](O)C2)cnc1N (single isomer, unassigned) [Compound 559] | A (an IC50 ratio greater than or equal to 10 fold) |  | 1000 to 10000 nM |
